Data published in patent publication US11773062B2, “Deuterated compounds” (priority 2021, dated 2023).
Like-named read-outs stand apart in the source and are kept apart here.

Legend:
CYP2D6 [1] = target: T1, CYP2D6 (Homo sapiens, UniProt P10635); assay: in vitro; settings: recombinant enzyme, pH 7.4
Description: (§4) The CYPs used in this study are heterologously expressed in E. coli and purchased as individualised forms (CYP bactosomes) from CYPEX. Bactosomes contain recombinant CYP isoenzymes combined with CYP reductase leading to a higher specific activity than liver microsomes.
(§5) Phosphate buffer is prepared at 0.1 M, pH 7.4 by combining 0.1 M Na2HPO4 and 0.1 M KH2PO4 solutions.
(§6) Nicotinamide adenine dinucleotide 2′-phosphate reduced tetrasodium salt hydrate (NADPH) is prepared at 10 m<in 0.1 M phosphate buffer (pH 7.4).
(§7) The individual CYP bactosomes are thawed at room temperature undiluted to 200 pmol/mL and 0.1 M phosphate buffer.
(§8) Standard final incubation conditions are 1-3 μM compound in a buffer containing 100 pmol/mL CYP bactosome, 1% (v/v) DMSO.
(§9) The elimination rate constant (k) is calculated using the slope of a ln (MS peak area or response—if internal standard is used) vs. time plot of the test compounds and markers.
(§10) Intrinsic clearance in μL/min/nmol CYP is calculated using the following equation: Clint=−1000 k/CYP concentration
(§11) Projected CYP isoform intrinsic clearance accounting for estimated CYP abundance in human liver microsomes (μL/min/mg microsomal protein)* is calculated using the following equation: Projected set isoform intrinsic clearance=Estimated CYP abundance*Clint * Estimated CYP abundance is taken as an average from three literature references 1, 2 3 and the abundances used are as follows (nmol CYP/mg Human Liver Microsomal Protein):

CYP2D6 [2] = target: T1, CYP2D6; settings: for intrinsic clearance, CYP isoform 2D6: human, recombinant enzyme, pH 7.4
Description: as §4, §5, §6, §7, §8, §9, §10, §11

CYP2C8 = target: T2, CYP2C8 (Homo sapiens, UniProt P10632); assay: in vitro; settings: E. coli CYPEX membranes, 100 pmol/mL CYP
T2 sequence (P10632 1-490): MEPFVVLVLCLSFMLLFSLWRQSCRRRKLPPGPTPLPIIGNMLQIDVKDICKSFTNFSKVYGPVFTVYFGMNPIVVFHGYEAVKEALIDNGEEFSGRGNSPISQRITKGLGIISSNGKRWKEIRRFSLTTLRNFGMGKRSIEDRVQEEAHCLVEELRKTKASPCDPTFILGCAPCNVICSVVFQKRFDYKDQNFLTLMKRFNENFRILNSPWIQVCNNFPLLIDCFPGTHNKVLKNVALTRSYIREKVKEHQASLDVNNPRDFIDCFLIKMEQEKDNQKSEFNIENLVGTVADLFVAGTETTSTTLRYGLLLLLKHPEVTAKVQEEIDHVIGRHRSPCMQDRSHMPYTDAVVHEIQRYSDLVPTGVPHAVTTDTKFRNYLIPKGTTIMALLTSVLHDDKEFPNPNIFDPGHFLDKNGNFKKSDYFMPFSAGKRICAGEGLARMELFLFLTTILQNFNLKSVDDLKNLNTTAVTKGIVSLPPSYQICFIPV
Description: (§1) Samples were taken at predetermined time points.
(§2) Samples were then centrifuged at −4° C.
(§3) Positive control markers are as specified in Table 11.

CYP2B6 = target: T3, CYP2B6 (Homo sapiens, UniProt P20813); assay: in vitro; settings: E. coli CYPEX membranes, 100 pmol/mL CYP
T3 sequence (P20813 1-491): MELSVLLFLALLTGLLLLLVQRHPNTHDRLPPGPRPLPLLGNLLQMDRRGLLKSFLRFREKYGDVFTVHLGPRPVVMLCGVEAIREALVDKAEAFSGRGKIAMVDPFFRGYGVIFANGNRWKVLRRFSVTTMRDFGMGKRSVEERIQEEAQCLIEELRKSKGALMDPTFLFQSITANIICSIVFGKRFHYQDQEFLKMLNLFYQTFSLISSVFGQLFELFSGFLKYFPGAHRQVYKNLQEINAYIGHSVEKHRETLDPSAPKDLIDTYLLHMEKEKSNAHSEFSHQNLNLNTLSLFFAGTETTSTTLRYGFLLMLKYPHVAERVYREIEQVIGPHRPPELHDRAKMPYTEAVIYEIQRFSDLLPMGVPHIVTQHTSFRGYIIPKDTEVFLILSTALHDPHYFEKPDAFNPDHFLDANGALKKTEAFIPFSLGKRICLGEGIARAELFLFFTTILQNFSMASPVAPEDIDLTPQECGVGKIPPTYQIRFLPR
Description: as §1, §2, §3

CYP1A2 = target: T4, CYP1A2 (Homo sapiens, UniProt P05177); assay: in vitro
T4 sequence (P05177 1-516): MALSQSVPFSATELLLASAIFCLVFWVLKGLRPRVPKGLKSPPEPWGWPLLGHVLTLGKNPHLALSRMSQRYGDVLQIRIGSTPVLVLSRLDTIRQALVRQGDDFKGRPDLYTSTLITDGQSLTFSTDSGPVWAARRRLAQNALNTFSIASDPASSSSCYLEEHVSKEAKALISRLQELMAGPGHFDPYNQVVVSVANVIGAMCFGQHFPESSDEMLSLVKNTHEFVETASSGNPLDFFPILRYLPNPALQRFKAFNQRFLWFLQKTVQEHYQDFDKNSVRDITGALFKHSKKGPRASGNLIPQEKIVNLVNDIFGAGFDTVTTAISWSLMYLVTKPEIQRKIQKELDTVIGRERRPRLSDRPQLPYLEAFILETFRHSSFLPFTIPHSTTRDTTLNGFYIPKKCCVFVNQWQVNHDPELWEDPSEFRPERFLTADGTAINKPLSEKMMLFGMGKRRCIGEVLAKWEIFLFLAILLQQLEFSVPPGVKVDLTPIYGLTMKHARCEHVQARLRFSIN
Description: as §1, §2, §3

CYP3A5 = CYP3A5 (Homo sapiens, UniProt P20815); assay: in vitro; settings: E. coli CYPEX membranes, 100 pmol/mL CYP
Chain of CYP3A5 (P20815 whole entry): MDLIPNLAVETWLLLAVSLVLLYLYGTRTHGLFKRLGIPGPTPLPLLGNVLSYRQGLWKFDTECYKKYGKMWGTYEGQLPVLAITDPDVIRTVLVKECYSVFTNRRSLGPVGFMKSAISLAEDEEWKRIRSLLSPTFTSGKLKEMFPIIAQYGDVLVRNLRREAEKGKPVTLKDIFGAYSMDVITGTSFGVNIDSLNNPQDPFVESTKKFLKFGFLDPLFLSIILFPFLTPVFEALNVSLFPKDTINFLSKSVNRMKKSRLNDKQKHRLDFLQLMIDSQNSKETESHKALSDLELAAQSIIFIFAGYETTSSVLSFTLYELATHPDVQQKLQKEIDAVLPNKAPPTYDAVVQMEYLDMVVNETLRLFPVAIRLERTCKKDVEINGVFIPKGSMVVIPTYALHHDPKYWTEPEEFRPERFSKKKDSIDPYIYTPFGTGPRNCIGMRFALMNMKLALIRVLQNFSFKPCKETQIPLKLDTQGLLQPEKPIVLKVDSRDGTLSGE
Description: as §1, §2, §3

CYP3A4 = CYP3A4 (Homo sapiens, UniProt P08684); assay: CYP phenotyping, CYP bactosomes
Chain of CYP3A4 (P08684 whole entry): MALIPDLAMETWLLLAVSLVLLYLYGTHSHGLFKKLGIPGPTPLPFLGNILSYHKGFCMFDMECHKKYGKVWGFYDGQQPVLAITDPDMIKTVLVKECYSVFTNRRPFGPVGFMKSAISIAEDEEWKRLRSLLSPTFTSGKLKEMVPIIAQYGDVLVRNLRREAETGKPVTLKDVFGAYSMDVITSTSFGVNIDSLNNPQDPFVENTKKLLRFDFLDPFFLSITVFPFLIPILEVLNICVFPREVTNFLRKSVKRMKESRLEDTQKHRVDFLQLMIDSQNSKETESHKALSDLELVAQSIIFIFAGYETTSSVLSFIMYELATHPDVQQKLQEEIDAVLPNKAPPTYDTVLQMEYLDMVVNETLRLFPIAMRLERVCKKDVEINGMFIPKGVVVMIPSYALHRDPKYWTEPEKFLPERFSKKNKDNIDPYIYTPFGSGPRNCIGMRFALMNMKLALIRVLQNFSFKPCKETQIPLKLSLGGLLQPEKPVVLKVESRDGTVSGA
Description: as §1, §2, §3

CYP2C9 = CYP2C9 (Homo sapiens, UniProt P11712); assay: CYP phenotyping, CYP bactosomes
Chain of CYP2C9 (P11712 whole entry): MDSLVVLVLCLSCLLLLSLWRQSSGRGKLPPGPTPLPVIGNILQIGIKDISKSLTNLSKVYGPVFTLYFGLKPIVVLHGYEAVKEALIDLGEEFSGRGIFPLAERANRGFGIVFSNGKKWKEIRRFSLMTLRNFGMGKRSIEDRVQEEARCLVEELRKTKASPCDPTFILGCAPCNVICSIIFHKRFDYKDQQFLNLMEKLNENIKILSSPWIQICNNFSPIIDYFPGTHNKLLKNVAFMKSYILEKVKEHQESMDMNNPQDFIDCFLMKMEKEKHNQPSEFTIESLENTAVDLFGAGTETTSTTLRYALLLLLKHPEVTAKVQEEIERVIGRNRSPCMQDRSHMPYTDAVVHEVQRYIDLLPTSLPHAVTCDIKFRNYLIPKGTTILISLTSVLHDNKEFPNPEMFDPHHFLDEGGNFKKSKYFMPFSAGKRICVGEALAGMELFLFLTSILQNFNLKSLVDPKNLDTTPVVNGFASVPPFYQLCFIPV
Description: as §1, §2, §3

CYP2C19 = CYP2C19 (Homo sapiens, UniProt P33261); assay: CYP phenotyping, CYP bactosomes; settings: for projected scaled intrinsic clearance, CYP isoform 2C19: scaled by estimated CYP abundance in human liver microsomes (0.009 nmol CYP/mg); for substrate for CYP2C19: CYP phenotyping
Chain of CYP2C19 (P33261 whole entry, canonical isoform): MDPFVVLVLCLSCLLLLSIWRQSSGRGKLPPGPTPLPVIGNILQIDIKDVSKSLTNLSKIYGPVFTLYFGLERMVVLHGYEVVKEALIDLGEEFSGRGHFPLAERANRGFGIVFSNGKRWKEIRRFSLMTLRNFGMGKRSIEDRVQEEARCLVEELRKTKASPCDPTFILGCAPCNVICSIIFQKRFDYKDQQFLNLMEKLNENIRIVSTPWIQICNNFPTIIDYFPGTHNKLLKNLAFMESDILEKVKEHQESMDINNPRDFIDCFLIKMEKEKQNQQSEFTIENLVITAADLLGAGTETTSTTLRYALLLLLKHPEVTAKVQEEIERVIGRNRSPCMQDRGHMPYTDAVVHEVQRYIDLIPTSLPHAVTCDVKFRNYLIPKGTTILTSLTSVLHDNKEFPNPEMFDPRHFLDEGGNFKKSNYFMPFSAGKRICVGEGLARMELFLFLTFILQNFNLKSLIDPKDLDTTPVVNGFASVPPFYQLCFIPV
Description: as §1, §2, §3

CYP2D6 [3] = target: T1, CYP2D6; assay: CYP phenotyping, CYP bactosomes; settings: for half-life, CYP isoform 2D6 / intrinsic clearance, CYP isoform 2D6: E. coli CYPEX membranes, 100 pmol/mL CYP; for projected scaled intrinsic clearance, CYP isoform 2D6: scaled by estimated CYP abundance in human liver microsomes (0.012 nmol CYP/mg); for substrate for CYP2D6: CYP phenotyping
Description: as §4, §5, §6, §7, §8, §9, §10, §11

[4] = tested on: human (mixed gender) hepatocytes; assay: In vitro intrinsic clearance in human hepatocytes with and without MAO-A/B inhibitor combination (first experiment); settings: for % change in half-life, MAO inhibitors vs no inhibitors / % change in intrinsic clearance, MAO inhibitors vs no inhibitors: human hepatocytes (Table 5); for Intrinsic clearance, without inhibitors: without MAO-A/B inhibitor combination (Table 5)
Description: Standard final incubation conditions are 1 μM compound in buffer containing nominally ˜0.5 million viable cells/mL, ˜0.9% (v/v) acetonitrile (MeCN) and ˜0.1% (v/v) DMSO (specific assay concentrations outlined above, section 2).
Samples are then centrifuged at 4° C.

[5] = tested on: mouse (male CD-1) hepatocytes; assay: In vitro mouse hepatocytic intrinsic clearance; settings: mouse CD-1 hepatocytes 0.367 million cells/mL, 5 μM (Table 8)
[6] = Human liver mitochondrial fraction intrinsic clearance of SPL026, SPL028i, SPL028iii, SPL028viii; assay type: in vitro ADME; settings: 0.5 mg/mL human liver mitochondrial fraction (Table 10)
From the text: Human Liver Mitochondrial (HLMt) fractions contain high quantities of MAO enzymes and therefore, provide a useful tool to measure the clearance of MAO substrates.

[7] = E. coli CYPEX membranes, 100 pmol/mL CYP
[8] = human hepatocytes, with 100 nM clorgyline + 100 nM deprenyl/selegiline (Table 3)
[9] = human hepatocytes, with MAO-A/B inhibitor combination (Table 5)
[10] = human, recombinant enzyme, pH 7.4

T1 sequence (P10635 whole entry, canonical isoform): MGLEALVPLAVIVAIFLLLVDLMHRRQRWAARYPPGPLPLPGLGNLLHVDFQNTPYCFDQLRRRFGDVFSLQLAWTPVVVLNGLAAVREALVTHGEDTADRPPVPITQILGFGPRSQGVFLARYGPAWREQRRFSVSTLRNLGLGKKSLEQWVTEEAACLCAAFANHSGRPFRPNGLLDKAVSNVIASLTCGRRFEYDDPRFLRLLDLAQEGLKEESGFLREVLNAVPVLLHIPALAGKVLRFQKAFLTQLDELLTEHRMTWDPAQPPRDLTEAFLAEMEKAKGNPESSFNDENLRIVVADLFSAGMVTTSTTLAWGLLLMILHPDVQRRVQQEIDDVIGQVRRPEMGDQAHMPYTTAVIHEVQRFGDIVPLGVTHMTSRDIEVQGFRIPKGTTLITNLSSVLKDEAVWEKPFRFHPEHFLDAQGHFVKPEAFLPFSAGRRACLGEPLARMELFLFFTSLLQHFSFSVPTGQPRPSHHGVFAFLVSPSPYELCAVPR

SMILES	half-life (CYP2D6 [1]) [min]	intrinsic clearance, CYP isoform 2D6 (CYP2D6 [2]) [μL/min/nmol CYP]	half-life, CYP isoform 2C8 (CYP2C8) [h]	intrinsic clearance, CYP isoform 2C8 (CYP2C8) [μL/min/nmol CYP]	half-life, CYP isoform 2B6 (CYP2B6) [h]	half-life, CYP isoform 1A2 (CYP1A2; [7]) [h]	half-life, CYP isoform 3A5 (CYP3A5) [h]	intrinsic clearance, CYP isoform 3A5 (CYP3A5) [μL/min/nmol CYP]	half-life, CYP isoform 3A4 (CYP3A4; [7]) [h]	intrinsic clearance, CYP isoform 3A4 (CYP3A4; [7]) [μL/min/nmol CYP]	half-life, CYP isoform 2C9 (CYP2C9; [7]) [h]	intrinsic clearance, CYP isoform 2C9 (CYP2C9; [7]) [μL/min/nmol CYP]	half-life, CYP isoform 2C19 (CYP2C19; [7]) [h]	intrinsic clearance, CYP isoform 2C19 (CYP2C19; [7]) [μL/min/nmol CYP]	projected scaled intrinsic clearance, CYP isoform 2C19 (CYP2C19)	half-life, CYP isoform 2D6 (CYP2D6 [3]) [h]	intrinsic clearance, CYP isoform 2D6 (CYP2D6 [3]) [μL/min/nmol CYP]	projected scaled intrinsic clearance, CYP isoform 2D6 (CYP2D6 [3])	% change in half-life, MAO inhibitors vs no inhibitors [4] [%]	% change in intrinsic clearance, MAO inhibitors vs no inhibitors [4] [%]	further results
COc1ccc2c(c1)[C@]13CCCC[C@@H]1[C@H](C2)N(C)CC3 [Dextromethorphan]	3	2686	–	–	–	–	–	–	–	–	–	–	–	–	–	–	–	–	–	–	–
CN(C)CCc1c[nH]c2ccccc12 [DMT in SPL028ii]	–	–	>4	<29	>4	>4	>4	<29	>4	<29	>4	<29	2.7	43	0.4 μl/min/mg microsomal protein	0.15	803	9.5 μl/min/mg microsomal protein	–	–	–
[2H]C([2H])(Cc1c[nH]c2ccccc12)N(C)C [SPL028ii, α,α,-bis-deuterium-N,N-dimethyltryptamine]	–	–	>4	<29	>4	>4	>4	<29	>4	<29	>4	<29	2.93	39	0.4 μl/min/mg microsomal protein	0.15	801	–	14.69	−19.13	Intrinsic clearance, with inhibitors [4, 8]: 8.78 μL/min/million cells; Intrinsic clearance, with inhibitors [4, 9]: 8.78 μL/min/million cells; Intrinsic clearance, without inhibitors ([4]; human hepatocytes): 10.46 μL/min/million cells; intrinsic clearance, CYP isoform 2B6 (CYP2B6): <29 μL/min/nmol CYP; intrinsic clearance, CYP isoform 1A2 (CYP1A2; [7]): <29 μL/min/nmol CYP; substrate for CYP2C19 (CYP2C19): substrates; w Half-life [5]: 0.307 h; w Intrinsic clearance [5]: 102.7 μL/min/million cells; projected scaled intrinsic clearance, CYP isoform 2D6 (CYP2D6 [2]): 9.5 μl/min/mg microsomal protein; substrate for CYP2D6 (CYP2D6 [3]): substrates
CN(C)CCc1c[nH]c2ccccc12 [DMT in SPL028i]	–	–	>4	<29	>4	>4	>4	<29	>4	<29	>4	<29	2.93	40	0.4 μl/min/mg microsomal protein	0.167	687	8.1 μl/min/mg microsomal protein	–	–	–
[2H]C([2H])(Cc1c[nH]c2ccccc12)N(C)C [SPL028i, α,α,-bis-deuterium-N,N-dimethyltryptamine]	–	–	>4	<29	>4	>4	>4	<29	>4	<29	>4	<29	3	39	0.3 μl/min/mg microsomal protein	0.15	793	–	−5.33	4.67	Intrinsic Clearance [6]: 44.6 μL/min/mg protein; Intrinsic clearance, with inhibitors [4, 8]: 7.50 μL/min/million cells; Half-life, with inhibitors [4, 9]: 2.8292 h; Intrinsic clearance, with inhibitors [4, 9]: 7.5 μL/min/million cells; Half-life, with inhibitors ([4]; human hepatocytes, with MAO-A/B inhibitors (Table 4; unit given only in Table 5)): 2.8292 h; quicker intrinsic clearance in the presence of MAO inhibitors ([4]; human hepatocytes, with vs without MAO inhibitors): ~5%; Intrinsic clearance, without inhibitors ([4]; human hepatocytes): 7.15 μL/min/million cells; intrinsic clearance, CYP isoform 2B6 (CYP2B6): <29 μL/min/nmol CYP; intrinsic clearance, CYP isoform 1A2 (CYP1A2; [7]): <29 μL/min/nmol CYP; substrate for CYP2C19 (CYP2C19): substrates; w Half-life [5]: 0.323 h; w Intrinsic clearance [5]: 97.4 μL/min/million cells; projected scaled intrinsic clearance, CYP isoform 2D6 (CYP2D6 [2]): 9.4 μl/min/mg microsomal protein; substrate for CYP2D6 (CYP2D6 [3]): substrates
COc1ccccc1OCCNCC(O)COc1cccc2[nH]c3ccccc3c12 (stereo not drawn) [Carvedilol, reference compound]	2	4483	–	–	–	–	–	–	–	–	–	–	–	–	–	–	–	–	–	–	half-life (CYP1A2; [10]): 0.5 h; intrinsic clearance, CYP isoform 1A2 (CYP1A2; [10]): 231 μL/min/nmol CYP; half-life (CYP3A4; [10]): 0.817 h; intrinsic clearance, CYP isoform 3A4 (CYP3A4; [10]): 142 μL/min/nmol CYP; half-life (CYP2C9; [10]): 2.23 h; intrinsic clearance, CYP isoform 2C9 (CYP2C9; [10]): 52 μL/min/nmol CYP; half-life (CYP2C19; [10]): 0.217 h; intrinsic clearance, CYP isoform 2C19 (CYP2C19; [10]): 526 μL/min/nmol CYP
